From patent US7598258B2, “Quinoline derivatives and quinazoline derivatives inhibiting autophosphorylation of macrophage colony stimulating factor receptor” (Kirin Beer Kabushiki Kaisha, priority 2002, dated 2009)

Legend:
BAC-1.2F5 cell line = assay: Inhibition of M-CSF-dependent cell growth of macrophage-like cell line BAC-1.2F5 (MTS); assay type: cell-based, mouse; details: 72 hr, M-CSF 50 ng/ml, FIG. 1
Procedure: Macrophage-like cell line BAC-1.2F5 which expresses c-fms as a M-CSF receptor on cell membranes (CLAUDIA M. et al., J. Cell. Physiol., 130, 420-427 (1987), “Isolation and Characterization of a Cloned Growth Factor Dependent Macrophage Cell Line, BAC1.2F5”) was cultured at 37° C. in a DMEM medium containing L-cell supernatant and 10% fetal calf serum (purchased from GIBCO BRL) in a 5% CO2 incubator until about 50 to 70% confluent. The harvested cells were inoculated into wells, each containing a 10% fetal calf serum-containing DMEM medium with human recombinant M-CSF being added thereto to a final concentration of 50 ng/ml, in a 96-well flat-bottom plate at a density of 5.0×10^3 per well, and cultured at 37° C. for 24 hr. A test compound dissolved in dimethyl sulfoxide was then added to each well to a target concentration, and cells were incubated at 37° C. in a 5% CO2 incubator for 72 hr. Thereafter, 20 μl of an MTS reagent (purchased from Promega) was added to each well, followed by incubation at 37° C. in a 5% CO2 incubator for 2 hr. Thereafter, absorbance at 490 nm was measured with a microplate reader. The cell growth rate with the addition of the test compound was determined by presuming the absorbance without the addition of the test compound and with the addition of M-CSF to be 100% cell growth and the absorbance without the addition of the test compound and M-CSF to be 0% cell growth. The concentration of the test compound was varied on several levels, and the cell growth rate in each case was calculated.

[1] = test system: osteoclast differentiation; assay: Osteoclast differentiation-inducing test by cocultivation of mouse bone marrow cells and osteoblast-like cell line KS483 (TRAP activity); assay type: cell-based; details: 6 days coculture with 1,25(OH)2VD3, FIG. 2
Procedure: Mouse osteoblast-like cell line KS483 ([…] T. et al., Bone, 19, 429-436 (1996), “Subcloning of Three Osteoblastic Cell with Distinct Differentiation Phenotypes from the Mouse Osteoblastic Cell line KS-4”) was cultured in an α-MEM medium containing a 10% fetal calf serum (purchased from GIBCO BRL) until about 90% confluent. The cells were seeded into wells, each containing the same medium containing a 10% fetal calf serum, in a 48 well flat-bottom plate at a density of 2.0×10^3 per well. […] At the same time, the TRAP activity was evaluated by the measurement of enzyme activity using p-nitrophenylphosphate (SIGMA104 phosphatase substrate; SIGMA; hereinafter referred to as “PNP”). […] After stirring, 50 μl of 0.5 N NaOH was further added, and 100 μl of the reaction solution in each well was dispensed in a 96 well flat-bottom plate, and absorbance at 405 nm was then measured with a microplate reader. For each well, TRAP activity was measured by presuming the absorbance in the case of culture without the addition of the test compound and with the addition of only KS483 and mouse bone marrow cells in the presence of 1,25(OH)2VD3 to 100% TRAP activity and the absorbance without the addition of the test compound and the mouse bone marrow cells to 0% TRAP activity. […]

[2] = test system: bone metastasis of A375 human melanoma cells; assay: Nude mouse bone metastasis model using human melanoma cells (A375); assay type: in vivo, nude mice; details: oral 40 mg/kg/day (20 mg twice a day), 28 days, p<0.01 vs. vehicle control, FIG. 3
Procedure: From the next day of the transplantation, for 28 days twice a day, the test compound was orally administered to the treatment group at 40 mg/kg/day, and the medium was orally administered to the control group. On 21 and 28 days after the transplantation, the mice were radiographed. For the images thus obtained, the bone resorption pore area in femora and fibiae attributable to bone metastasis of melanoma in each individual were calculated with an image analysis software (Image Gauge, FUJI FILM) to determine the average value for each group. The drug efficacy was evaluated by comparing the area of the test compound administered group with the area of the control group.

| Structure (SMILES) | inhibition of M-CSF-dependent cell growth of BAC-1.2F5 (BAC-1.2F5 cell line) | inhibition of osteoclast differentiation (TRAP activity) [1] | inhibition of expansion of bone resorption area involved in bone metastasis of melanoma [2] |
| --- | --- | --- | --- |
| COc1cc(Oc2ccnc3cc(OC)c(OC)cc23)ccc1NC(=O)NC(C)c1nccs1 (centres unmarked) [Example 74, N-{4-[(6,7-Dimethoxy-4-quinolyl)oxy]-2-methoxyphenyl}-N′-[1-(1,3-thiazol-2-yl)ethyl]urea] | concentration-dependent inhibition | concentration-dependent inhibition | inhibiting the expansion of bone resorption area |
| COc1cc(Oc2ccnc3cc(OC)c(OC)cc23)ccc1NC(=O)N[C@H](C)c1ccc(F)cc1 [Example 18, N-{4-[(6,7-Dimethoxy-4-quinolyl)oxy]-2-methoxyphenyl}-N′-[(1R)-1-(4-fluorophenyl)ethyl]urea] | concentration-dependent inhibition |  |  |
| COc1cc(Oc2ccnc3cc(OC)c(OC)cc23)ccc1NC(=O)N[C@@H](C)c1ccc(F)cc1 [Example 17, N-{4-[(6,7-Dimethoxy-4-quinolyl)oxy]-2-methoxyphenyl}-N′-[(1S)-1-(4-fluorophenyl)ethyl]urea] | concentration-dependent inhibition |  |  |
